Data: PubChem BioAssay (NCI)
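Cultured in 96-well plates, cells were exposed to test compound for 48 hours across five concentrations. GI50 marks 50% less growth. TGI marks complete inhibition of growth.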

Legend:
Test in all cases: NCI-60 cell line screen, 48 h
SR leukemia = tested on: SR leukemia
UACC-62 melanoma = tested on: UACC-62 melanoma
OVCAR-3 ovarian = tested on: OVCAR-3 ovarian
SF-295 CNS = tested on: SF-295 CNS
HOP-92 NSCLC = tested on: HOP-92 NSCLC
OVCAR-4 ovarian = tested on: OVCAR-4 ovarian
DU-145 prostate = tested on: DU-145 prostate
SK-MEL-5 melanoma = tested on: SK-MEL-5 melanoma
NCI-H226 lung = tested on: NCI-H226 lung
SN12C renal = tested on: SN12C renal

SMILES	TGI (SR leukemia) [µM]	TGI (UACC-62 melanoma) [µM]	TGI (OVCAR-3 ovarian) [µM]	TGI (SF-295 CNS) [µM]	TGI (HOP-92 NSCLC) [µM]	TGI (OVCAR-4 ovarian) [µM]	TGI (DU-145 prostate) [µM]	TGI (SK-MEL-5 melanoma) [µM]	GI50 (SR leukemia) [µM]	GI50 (SF-295 CNS) [µM]	TGI (NCI-H226 lung) [µM]	TGI (SN12C renal) [µM]	GI50 (SK-MEL-5 melanoma) [µM]	GI50 (UACC-62 melanoma) [µM]	GI50 (NCI-H226 lung) [µM]	GI50 (HOP-92 NSCLC) [µM]	GI50 (DU-145 prostate) [µM]
COc1ccc(-c2oc3cc(O)cc(O)c3c(=O)c2OC)cc1	> 100	> 100	60.9	> 100	16.1	> 100	> 100	43.5									
Cc1cc2c([nH]c3ccccc32)c(O)c1-c1c(C)cc2c([nH]c3ccccc32)c1O	16		29.3	33.4	30.7	28.8	25.7	30.1	3.16	17.4	36.5	6.44	16.5				
CCCCCCCCCCCCCCCCCCNc1nc(=O)n(C2CC(O)C(COP(=O)(O)O)O2)cc1F (stereo not drawn)		> 100	> 100	> 100	> 100	> 100	> 100	> 100			> 100	> 100					
CC(C)(C)OC(=O)NCC(CNC(=O)OC(C)(C)C)c1nc(C(N)=O)cs1	> 100	> 100	> 100	> 100	> 100	> 100		> 100			> 100	> 100					
COc1cccc(N[C@@H]2c3cc4c(cc3C(c3cc(OC)c(O)c(OC)c3)[C@H]3C(=O)OCC32)OCO4)c1 (stereo partly drawn)		2.83	68.6	2.5	9.33	87.9		3.04			2.05						
Cc1nn(-c2ccccc2)c(C)c1/C=N/N=C1\S/C(=C\c2ccc(Cl)cc2)C(=O)N1c1ccccc1		> 100	> 100	> 100	> 100	4.74	> 100	> 100			> 100	> 100					
Cc1cc(OC(=O)NCn2cc(-c3ccccc3)nn2)ccc1Cl	> 100			> 100	> 100	> 100	> 100	> 100			> 100	> 100					
CCOC(=O)c1cc(C)nc2c1c(=O)n(-c1ccccc1)c(=O)n2CCCCN1CCN(c2ccccc2)CC1	48.4	> 100		> 100	> 100	> 100	> 100	> 100			> 100	> 100					
NCc1cccc(O)c1O	> 100	> 100	> 100	> 100	> 100	> 100		> 100			> 100	> 100					
C=CCOn1c(C=C)nc2ccc(C)cc21	33.4	26.8	40.9	82.6	> 100	> 100		31.4			37.5	33.4					
COc1ccc(C(SC2C(O)C(CO)OC2n2ccc(=O)[nH]c2=O)(c2ccccc2)c2ccc(OC)cc2)cc1 (stereo not drawn)		33.3	37.1	43.3	29.7	64.9	34.4	29			31.9	32.4					
C/C(=N\Nc1nc2cc(C(F)(F)F)ccc2s1)c1ccccn1		3.38	8.85	5.19	8.15	32.6	3.98	12.1			3.31	1.51					
CCN=C1C=CC(=C(c2ccc(N(CC)CC)cc2)c2ccc(N(CC)CC)cc2)c2ccccc21		1.11			0.0922		1.37	0.133			1.61		0.0363	0.0983	0.064	0.0175	0.0492
CC(C)(C)n1c(=O)[nH]c(=O)n1C(C)(C)C	> 100	> 100	> 100	> 100	> 100	> 100		> 100			> 100	> 100					
Cc1ccccc1N=C(N)Nc1ccccc1C		> 100	> 100	> 100		> 100	> 100	> 100			> 100	> 100					
Nc1nc(Cl)cc(NC23CC4CC(CC(C4)C2)C3)n1	> 100	> 100	> 100	> 100	> 100	> 100	> 100				> 100	> 100					
C=C=C(CC(CC(=C)Br)(C(=O)OC)C(=O)OC)S(=O)(=O)c1ccccc1		3.11	4.98	26.9	3.97	21.2	3.35	10.3			12.2	3.13					
CC1(C)CC2(CC(C)(C)N1O)NC(=O)OC2=O		> 100	> 100	> 100	> 100	> 100		> 100			> 100	> 100					
CN1CC2=C(NC(=S)NC2c2ccccc2)/C(=C/c2ccccc2)C1 (stereo not drawn)	> 100	> 100	> 100	> 100			> 100	74.1			> 100	> 100					
c1ccc(/C(=N/Nc2ccncn2)c2ccccn2)cc1	> 100	> 100	32.5	64.9		> 100	> 100	> 100			96.2	> 100					
CCc1cc2c(c3c1CCCC3=O)CC1(Cc3ccc(C(=O)OC)cc3C1)C2 (stereo not drawn)			> 100	> 100	> 100	> 100	> 100	30.1			> 100	> 100					
CN(C)/N=N/c1nc2c(c(=O)n(C)c(=O)n2C)n1CC(O)CO (stereo not drawn)		> 100	> 100	> 100		> 100	> 100	> 100			> 100	> 100					
O=C(Cc1ccc(Cl)c(Cl)c1)NCC1(N2CCCCC2)CCCCC1	> 100	42	> 100	> 100	> 100	> 100	> 100					> 100					
CC(=O)Nc1ccc(OC/C(N)=N/NC(=O)c2ccncc2)cc1		> 100	> 100	> 100	> 100	> 100	> 100					> 100					
